Structures can show the parent of a compound that is named as a salt. Where two headings read alike, the source gives them in different places.
What was measured:
[1] = target: KRAS protein containing G12D mutation (Homo sapiens (Human), UniProt P01116, G12D); assay: SOS-catalyzed nucleotide exchange assay (GNE), TR-FRET; type: biochemical; conditions: biotinylated KRAS G12D, SOS and GTP, 60-minute incubation
Procedure: Compounds are added to this complex and then after a 60-minute incubation time the mixture is treated with SOS and unlabeled GTP. Small molecule inhibitors stabilize the Bodipy-GDP complex whereas the untreated protein rapidly exchanges Bodipy-GDP for unlabeled GTP resulting in reduced TR-FRET signal.
This solution is referred to as biotinylated KRAS G12D stock solution.

[2] = test system: AsPC-1 cells containing homozygous KRAS-G12D activating mutation; assay: Cellular phospho-ERK assay with 10% FBS (Examples 107a-256); type: cell-based
Procedure: 5% CO2 for 2 hours. […] Assay plates were read on a EnVision Multimode Plate Reader (PerkinElmer) and the ratio of p-Erk vs total Erk in each well was used as the final readout.

[3] = Homo sapiens, ASPC1, 2 h, read-out: IC50 (nM) pERK (cell with FBS 10%), AsPC-1 cells, 10% fetal bovine serum, 2 hours, ratio of p-Erk vs total Erk
[4] = read-out: IC50 (nM) pERK (cell with FBS 10%), AsPC-1 cells, 10% fetal bovine serum, 2 hours, ratio of p-Erk vs total Erk

Sequence of KRAS protein containing G12D mutation (P01116 other isoform, or with tags, fused parts or gaps G12D (already in the parent)): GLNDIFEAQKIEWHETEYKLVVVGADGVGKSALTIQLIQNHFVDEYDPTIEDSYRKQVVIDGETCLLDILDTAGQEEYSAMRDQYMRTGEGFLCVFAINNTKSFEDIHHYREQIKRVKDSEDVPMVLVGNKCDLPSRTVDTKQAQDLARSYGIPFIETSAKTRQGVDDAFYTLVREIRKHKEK

| SMILES | IC50 [1] | IC50 [2, 3] | IC50 [2, 4] |
| --- | --- | --- | --- |
| CN(C[C@@]1(COc2nc(N3C[C@H]4CC[C@@](C)(C3)N4)c3cc(F)c(-c4cc(O)cc5cccc(Cl)c45)c(F)c3n2)CC1(F)F)[C@@H]1CCC[C@H]1O [Ex. 217a, 5-chloro-4-(2-(((R)-2,2-difluoro-1-((((1R,2R)-2-hydroxycyclopentyl)-(methyl)amino)methyl)cyclopropyl)methoxy)-6,8-difluoro-4-((1S,5R)-1-methyl-3,8-diazabicyclo[3.2.1]octan-3-yl)quinazolin-7-yl)naphthalen-2-ol] | 12.7 nM | 2640 nM | – |
| C[C@]12CCC(CN(c3nc(OCC45CCCN4CC(F)C5)nc4c(F)c(-c5nc(N)cc6cccc(Cl)c56)c(F)cc34)C1)N2 (stereo in doubt) [Ex. 131, 8-chloro-1-(6,8-difluoro-2-(((2S,7aR)-2-fluorotetrahydro-1H-pyrrolizin-7a(5H)-yl)methoxy)-4-((1S,5R)-1-methyl-3,8-diaza-bicyclo[3.2.1]octan-3-yl)quinazolin-7-yl) isoquinolin-3-amine] | 188 nM | 6980 nM | – |
| C[C@]12CC[C@H](CN(c3nc(OC[C@@]45CCCN4C[C@H](F)C5)nc4c(F)c(-c5cc(O)cc(Cl)c5Cl)c(F)cc34)C1)N2 (single isomer, unassigned) [Ex. 129a, HCl] | 17.7 nM | 2810 nM | – |
| CC(Oc1nc(N2C[C@H]3CC[C@@](C)(C2)N3)c2cc(F)c(-c3cc(O)cc4cccc(Cl)c34)c(F)c2n1)[C@]1(C)CCCN1 (mixture of isomers) [Ex. 164, 5-chloro-4-(6,8-difluoro-4-((1S,5R)-1-methyl-3,8-diaza-bicyclo-[3.2.1]octan-3-yl)-2-(1-((S)-2-methyl-pyrrolidin-2-yl)ethoxy)-quinazolin-7-yl)naph-thalen-2-ol, TFA] | 562 nM | 29300 nM | – |
| C[C@]12CCC(CN(c3nc(OC[C@@]45CCCN4C[C@H](F)C5)nc4c(F)c(-c5cc(O)cc6cccc(C(F)F)c56)c(F)cc34)C1)N2 (racemic) [Ex. 181b, rac-4-(6,8-difluoro-2-(((2R,7aS)-2-fluoro-tetrahydro-1H-pyrrol-izin-7a(5H)-yl)meth-oxy)-4-((1S,5R)-1-methyl-3,8-diaza-bicyclo[3.2.1]octan-3-yl)quinazolin-7-yl)-5-(difluoromethyl)naph-thalen-2-ol] | – | – | 2660 nM |
| C[C@]12CCC(CN(c3nc(OC[C@@]45CCCN4C[C@H](F)C5)nc4c(F)c(-c5cc(O)cc6cccc(C(F)F)c56)c(F)cc34)C1)N2 (racemic) [Ex. 181a, rac-4-(6,8-difluoro-2-(((2R,7aS)-2-fluoro-tetrahydro-1H-pyrrol-izin-7a(5H)-yl)meth-oxy)-4-((18,5R)-1-methyl-3,8-diaza-bicyclo[3.2.1]octan-3-yl)quinazolin-7-yl)-5-(difluoromethyl)naph-thalen-2-ol] | – | – | 122 nM |
| Cc1cc2cnn(C)c2c(-c2c(F)cc3c(N4C[C@H]5CC[C@@H](C4)N5)nc(OC[C@@]45CCCN4C[C@H](F)C5)nc3c2F)c1C(F)(F)F [251a, 4-((1R,5S)-3,8-diazabicyclo[3.2.1]octan-3-yl)-7-(1,5-dimethyl-6-(trifluoromethyl)-1H-indazol-7-yl)-6,8-difluoro-2-(((2R, 7aS)-2-fluorotetrahydro-1H-pyrrolizin-7a(5H)-yl)methoxy)quinazoline] | 5.15 nM | – | – |
| Cc1nc(N)c(C#N)c(-c2c(F)cc3c(N4CC5CCC(C4)N5)nc(OC[C@@]45CCCN4C[C@H](F)C5)nc3c2F)c1C(F)(F)F (single isomer, unassigned) [Ex. 156a] | 14 nM | – | – |
| Nc1cc(Cl)c(C(F)(F)F)c(-c2c(Cl)cc3c(N4CC5CCC(C4)N5)nc(OC[C@@]45CCCN4C[C@H](F)C5)nc3c2F)n1 (single isomer, unassigned) [Ex. 154b] | 381 nM | – | – |
| Cc1cc(N)c(F)c(-c2c(F)cc3c(N4CC5CCC(C4)N5)nc(OC[C@@]45CCCN4C[C@H](F)C5)nc3c2F)c1C(F)(F)F (single isomer, unassigned) [Ex. 146b] | 25.2 nM | – | – |
| C#Cc1c(F)ccc2cc(N)nc(-c3c(F)cc4c(N5C[C@H]6CC[C@@H](C5)N6)nc(OC[C@@]56CCCN5C[C@H](F)C6)nc4c3F)c12 (single isomer, unassigned) [252b] | 204 nM | – | – |
| Oc1cc(-c2c(Cl)cc3c(N4CC5CCC(C4)N5)nc(OCC4(F)CNC4)nc3c2F)c2ccccc2c1 [Example 110, 4-(4-(3,8-diazabicyclo [3.2.1]octan-3-yl)-6-chloro-8-fluoro-2-((3-fluoroazetidin-3-yl)methoxy)quinazolin-7-yl)naphthalen-2-ol, TFA] | 770 nM | – | – |
| Oc1cc(-c2c(Cl)cc3c(N4CC5CCC(C4)N5)nc(OCC4CNC4)nc3c2F)c2ccccc2c1 [Example 109, 4-(2-(azetidin-3-ylmethoxy)-4-(3,8-diazabicyclo[3.2.1]octan-3-yl)-6-chloro-8-fluoroquinazolin-7-yl)naphthalen-2-ol, TFA] | 2680 nM | – | – |
| CNc1cc(C)c(C(F)(F)F)c(-c2c(F)cc3c(N4CC5CCC(C4)N5)nc(OCC4(CN5CCOCC5)CC4)nc3c2F)n1 (single isomer, unassigned) [Ex. 137b] | 4820 nM | – | – |
| C[C@]12CCC(CN(c3nc(OC[C@@]45CCCN4C[C@H](F)C5)nc4c(F)c(-c5cc(O)cc6cccc(C(F)F)c56)c(F)cc34)C1)N2 (single isomer, unassigned) [Ex. 181b] | 141 nM | – | – |
| C[C@]12CCC(CN(c3nc(OCC45CCCN4CC(C(F)F)C5)nc4c(F)c(-c5cc(O)cc6cccc(Cl)c56)c(F)cc34)C1)N2 (single isomer, unassigned) [Ex. 173-2b] | 2230 nM | – | – |
| C#Cc1cccc2cccc(-c3c(F)cc4c(N5CC6CC[C@@](C)(C5)N6)nc(OC[C@@]56CCCN5C[C@H](F)C6)nc4c3F)c12 (single isomer, unassigned) [Ex. 211a] | 2080 nM | – | – |
| Cc1nc(N)c(C)c(-c2c(F)cc3c(N4C[C@H]5CC[C@@H](C4)N5)nc(OC[C@@]45CCCN4C[C@H](F)C5)nc3c2F)c1C1CC1 [Ex. 198, 4-(4-((1R,5S)-3,8-diazabicyclo[3.2.1]-octan-3-yl)-6,8-difluoro-2-(((2R,7aS)-2-fluorotetrahydro-1H-pyrrolizin-7a(5H)-yl)-methoxy)quinazolin-7-yl)-5-cyclopropyl-3,6-dimethylpyridin-2-amine] | 1790 nM | – | – |
| C[C@@]12CC[C@H](CN(c3nc(OC[C@@]45CCCN4C[C@H](F)C5)nc4c(F)c(-c5cc(O)c(Cl)c6cccc(Cl)c56)c(F)cc34)C1)N2 (single isomer, unassigned) [Ex. 174b] | 1000 nM | – | – |
| C[C@]12CC[C@H](CN(c3nc(OCC4(N)CCC4)nc4c(F)c(-c5cc(O)cc6ccccc56)c(F)cc34)C1)N2 [Example 114, 4-(2-((1-aminocyclobutyl)methoxy)-6,8-difluoro-4-((1S,5R)-1-methyl-3,8-diazabicyclo[3.2.1]octan-3-yl)quinazolin-7-yl)naphthalen-2-ol, TFA] | 794 nM | – | – |
| CNc1cc(C)c(C(F)(F)F)c(-c2c(F)cc3c(N4CC5CCC(C4)N5)nc(OCC4(CN5CCOCC5)CC4)nc3c2F)n1 (single isomer, unassigned) [Ex. 137a] | 1610 nM | – | – |
| NC1(COc2nc(N3CC4CCC(C3)N4)c3cc(Cl)c(-c4cc(O)cc5ccccc45)c(F)c3n2)CCCC1 [Example 112, 4-(2-((1-aminocyclo-pentyl)methoxy)-4-(3,8-diazabicyclo[3.2.1]octan-3-yl)-6-chloro-8-fluoroquinazolin-7-yl)naphthalen-2-ol, TFA] | 2730 nM | – | – |
| CC(O)(COc1nc(N2CC3CC[C@@](C)(C2)N3)c2cc(F)c(-c3cc(O)cc4cccc(Cl)c34)c(F)c2n1)CN1CC[C@@H](F)C1 (single isomer, unassigned) [Ex. 210] | 2150 nM | – | – |
| C[C@@]12CC[C@H](CN(c3nc(OC[C@@]45CCCN4C[C@H](F)C5)nc4c(F)c(-c5cc(O)c(Cl)c6cccc(Cl)c56)c(F)cc34)C1)N2 (single isomer, unassigned) [Ex. 174a] | 3130 nM | – | – |
| C#Cc1cccc2cc(O)cc(-c3c(F)cc4c(N5C[C@]6(C)CC[C@](F)(C5)N6)nc(OC[C@@]56CCCN5C[C@H](F)C6)nc4c3F)c12 [compound 240, 4-(6,8-difluoro-4-((18,5S)-1-fluoro-5-methyl-3,8-diazabicyclo[3.2.1]octan-3-yl)-2-(((2R,7aS)-2-fluorotetrahydro-1H-pyrrolizin-7a(5H)-yl)methoxy)quinazolin-7-yl)-5-ethynylnaphthalen-2-ol] | 135 nM | – | – |
| C[C@]12CC[C@H](CN(c3nc(OC[C@@]45CCCN4C[C@H](F)C5)nc4c(F)c(-c5cccn6cccc56)c(F)cc34)C1)N2 [Ex. 130, 6,8-difluoro-2-(((2R,7aS)-2-fluorotetrahydro-1H-pyrrolizin-7a(5H)-yl)methoxy)-7-(indolizin-8-yl)-4-((1S,5R)-1-methyl-3,8-diazabicyclo[3.2.1]octan-3-yl)quinazoline, 2TFA] | 4190 nM | – | – |
| Cc1cc(-c2c(Cl)cc3c(N4C[C@H]5CC[C@@H](C4)N5)nc(OC[C@@]45CCCN4C[C@H](F)C5)nc3c2F)nc(N)c1OC(F)F [Ex. 168, 6-(4-((1R,5S)-3,8-diazabicyclo[3.2.1]-octan-3-yl)-6-chloro-8-fluoro-2-(((2R,7aS)-2-fluorotetrahydro-1H-pyrrolizin-7a(5H)-yl)-methoxy)quinazolin-7-yl)-3-(difluorometh-oxy)-4-methylpyridin-2-amine] | 1310 nM | – | – |
| Cc1nc(N)c(C#N)c(-c2c(F)cc3c(N4CC5CCC(C4)N5)nc(OC[C@@]45CCCN4C[C@H](F)C5)nc3c2F)c1C(F)(F)F (single isomer, unassigned) [Ex. 156b] | 554 nM | – | – |
| C[C@]12CC[C@H](CN(c3nc(OCC45CCCN4CCC(F)(F)C5)nc4c(F)c(-c5cc(O)cc6cccc(Cl)c56)c(F)cc34)C1)N2 (single isomer, unassigned) [Example 116a] | 2890 nM | – | – |

From US20240239788A1, “SMALL MOLECULE INHIBITORS OF KRAS G12D MUTANT” (Merck Sharp & Dohme LLC, priority 2021, published 2024)
